The target in experiment [1] is T1, CtBP (Homo sapiens, UniProt Q13363).
T1 construct: 6xHis
As to the kind of experiment: Fluorescence polarization competition of unlabeled peptide with FITC-labeled 14mer peptide. Type of experiment: binding. The method, then: (§1) Additional peptides were tested for in vitro inhibitory potency (Table 5). For Kd determination, FITC-labeled peptide (FITC-peptide) was incubated with varying concentrations of CtBP. The fluorescence polarization values of the FITC-peptide were measured and plotted against CtBP concentration to determine Kd of the FITC-peptide with CtBP using the Prism program. […] For IC50 determination, a fluorescence polarization assay was utilized. […] Increasing concentrations of unlabeled peptide were added to compete with the FITC-labeled peptide, leading to a decreased fluorescence polarization value.

For experiment [2], the target named is CtBP-E1A interaction (Homo sapiens, UniProt Q13363). The experiment is described as follows: CtBP-E1A interaction inhibition (AlphaScreen / fluorescence polarization competition assay). Type of experiment: binding. The method, then: The ability of peptides to inhibit CtBP binding can be monitored by two biochemical assays. An AlphaScreen assay (Perkin-Elmer) was developed that is capable of detecting the CtBP-E1A interaction. Purified GST-E1A and 6xHis-CtBP are incubated with glutathione-conjugated donor beads and nickel-chelated acceptor beads respectively. The interaction between CtBP and E1A brings the donor and acceptor beads in close proximity, which produces a fluorescence signal after laser excitation and can be detected using the EnVision plate reader. A peptide that inhibits this interaction will limit the proximity of the beads and thus a loss in fluorescence signal will occur. In addition to the alphascreen, a fluorescence polarization based assay with a fluorescein-labeled 14mer E1A peptide ([…] (SEQ ID NO: 1)) was also developed. Purified 6xHis-CtBP is incubated with the fluorescein-labeled E1A peptide and changes in the polarization value of the labeled peptide are detected using the EnVision plate reader. A decrease in peptide binding to CtBP can be detected by an […], and used to monitor peptide inhibition. IC50 values of designed peptides can be determined using either of these assays through the addition of increasing amounts in each well and monitoring the degree of inhibition of the CtBP-E1A interaction.
Multiple amino acid sequences may appear at positions outside the conserved peptide motif. The most frequently occurring amino acids in these positions are used to design the peptides that bind CtBP with the highest affinity. The affinity of these new peptides is compared to the original 14mer E1A peptide (SEQ ID NO:1) by comparing the IC50 of these peptides in inhibiting the CtBP/E1A protein interaction in a competition assay. The peptide identified from phage display that competes with the CtBP/E1A protein interaction better than the original 14mer E1A peptide is selected and conjugated to the cell penetrating peptide of the present invention. Also provided in Table 3 are […] for selected peptides.
The ability of peptides to inhibit CtBP binding can be monitored by two biochemical assays. An AlphaScreen assay (Perkin-Elmer) was developed that is capable of detecting the CtBP-E1A interaction. Purified GST-E1A and 6xHis-CtBP are incubated with glutathione-conjugated donor beads and nickel-chelated acceptor beads respectively. The interaction between CtBP and E1A brings the donor and acceptor beads in close proximity, which produces a fluorescence signal after laser excitation and can be detected using the EnVision plate reader. A peptide that inhibits this interaction will limit the proximity of the beads and thus a loss in fluorescence signal will occur. In addition to the alphascreen, a fluorescence polarization based assay with a fluorescein-labeled 14mer E1A peptide ([…] (SEQ ID NO: 1)) was also developed. Purified 6xHis-CtBP is incubated with the fluorescein-labeled E1A peptide and changes in the polarization value of the labeled peptide are detected using the EnVision plate reader. A decrease in peptide binding to CtBP can be detected by an […], and used to monitor peptide inhibition. IC50 values of designed peptides can be determined using either of these assays through the addition of increasing amounts in each well and monitoring the degree of inhibition of the CtBP-E1A interaction. Also provided in Table 4 are IC50 for selected peptides.

Experiment [3] addresses T1, CtBP. The experiment is described as follows: Fluorescence polarization Kd determination of FITC-peptide with CtBP. Type of experiment: binding. The conditions noted are these: read-out: Kd. The method, then: as §1
(In fluorescence polarisation assays a small probe gives low polarisation when free and higher when bound to something large.)

Experiment [4] concerns IMQ-based psoriasis model. As to the kind of experiment: IMQ-based psoriasis model. Format: in vivo, mouse. As to conditions: treated mice versus PBS control. As for the experimental part: To elucidate the molecular mechanisms for the Pep1-E1A blocker, H&E and immunostaining for proliferative and inflammatory markers was performed.
Setting [5] is: IC50 value, Table 3, inhibition of CtBP/E1A protein interaction.

12 compounds from patent publication US9683025B2, “Methods and compositions for treating cancer and inflammatory diseases” (The Regents of the University of Colorado, A Body Corporate, priority 2013, dated 2017) can be followed below.

Like-named read-outs stand apart in the source and are kept apart here. Where a SMILES comes first, the peptide text is derived from it. Where no end group is shown, it is not given here.

Broadly, the IC50 is the midpoint of a concentration-inhibition curve. Low values mean higher potency, high ones lower potency. Broadly, the Kd is the constant that tells how readily two partners part at equilibrium.

In turn, `CC(C)C[C@H](NC(=O)[C@H](CC(N)=O)NC(=O)[C@H](CC(C)C)NC(=O)[C@@H]1CCCN1C(=O)[C@H](CCC(=O)O)NC(=O)[C@H](CC(=O)O)NC(=O)[C@@H](NC(=O)[C@@H]1CCCN1)[C@@H](C)O)C(=O)N[C@@H](CO)C(=O)N[C@@H](CC(C)C)C(=O)N[C@@H](CCCCN)C(=O)N[C@@H](CCCNC(=N)N)C(=O)N1CCC[C@H]1C(=O)N[C@@H](CCCNC(=N)N)C(=O)O` [SEQ ID NO:134] (H-PTDEPLNLSLKRPR-OH; N-terminus and C-terminus assumed) came in with an IC50 in experiment [1] of 4.4 µM.

As to `CC(C)C[C@H](NC(=O)[C@H](CC(=O)O)NC(=O)[C@H](CC(C)C)NC(=O)[C@@H]1CCCN1C(=O)[C@H](CCC(N)=O)NC(=O)CNC(=O)[C@@H]1CCCN1C(=O)[C@H](CCC(=O)O)NC(=O)[C@H](CCC(=O)O)NC(=O)[C@H](CC(C)C)NC(=O)[C@H](CCC(N)=O)NC(=O)[C@@H]1CCCN1C(=O)[C@@H]1CCCN1C(=O)[C@H](CCCNC(=N)N)NC(=O)[C@H](CCCNC(=N)N)NC(=O)[C@H](CCCNC(=N)N)NC(=O)[C@H](CCC(N)=O)NC(=O)[C@H](CCCNC(=N)N)NC(=O)[C@H](CCCNC(=N)N)NC(=O)[C@H](CCCCN)NC(=O)[C@H](CCCCN)NC(=O)[C@H](CCCNC(=N)N)NC(=O)CN)C(=O)N[C@@H](CO)C(=O)N[C@@H](CS)C(=O)N[C@@H](CCC(N)=O)C(=O)N[C@@H](CCCNC(=N)N)C(=O)N1CCC[C@H]1C(=O)N[C@@H](CCCNC(=N)N)C(=O)N[C@@H](CC(=O)O)C(=O)N[C@@H](Cc1ccc(O)cc1)C(=O)N[C@@H](CCCCN)C(=O)N[C@@H](CC(=O)O)C(=O)N[C@@H](CC(=O)O)C(=O)N[C@@H](CC(=O)O)C(=O)N[C@@H](CC(=O)O)C(=O)N[C@@H](CCCCN)C(=O)O` [Tat-E1A-Flag (K239Q)] (H-GRKKRRQRRRPPQLEEPGQPLDLSCQRPRDYKDDDDK-OH; N-terminus and C-terminus assumed), the IC50 in experiment [2] (setting [5]) amounted to 7.7 µM.

In experiment [2] (setting [5]), `CC(C)C[C@H](NC(=O)[C@H](CC(=O)O)NC(=O)[C@H](CC(C)C)NC(=O)[C@@H]1CCCN1C(=O)[C@H](CCC(N)=O)NC(=O)CNC(=O)[C@@H]1CCCN1C(=O)[C@@H](N)CCC(=O)O)C(=O)N[C@@H](CO)C(=O)N[C@@H](CS)C(=O)N[C@@H](C)C(=O)N[C@@H](CCCNC(=N)N)C(=O)N1CCC[C@H]1C(=O)N[C@@H](CCCNC(=N)N)C(=O)O` [Peptide K239A] (H-EPGQPLDLSCARPR-OH; N-terminus and C-terminus assumed) had a half-maximal inhibitory concentration (IC50) of 21.9 µM.

With “KETWWETWWTEWSQPKKKRKVLEEPGQPLDLSCKRPRDYKDDDDK [Pep1-E1A-Flag]”, in experiment [2] (setting [5]), the 50% inhibitory concentration (IC50) came out at 26.6 µM.

In the case of EQTVPVDLSVARPR [SEQ ID NO:132], the Kd in experiment [3] (Table 5, FITC-peptide with CtBP) came out at 2.2 µM; in experiment [3] (affinity to CtBP1, Example 12), 2.2 µM.

`CC(=O)NCCCC[C@H](NC(=O)[C@H](CS)NC(=O)[C@H](CO)NC(=O)[C@H](CC(C)C)NC(=O)[C@H](CC(=O)O)NC(=O)[C@H](CC(C)C)NC(=O)[C@@H]1CCCN1C(=O)[C@H](CCC(N)=O)NC(=O)CNC(=O)[C@@H]1CCCN1C(=O)[C@@H](N)CCC(=O)O)C(=O)N[C@@H](CCCNC(=N)N)C(=O)N1CCC[C@H]1C(=O)N[C@@H](CCCNC(=N)N)C(=O)O` [K239-Acetylated] (H-EPGQPLDLSCK(Ac)RPR-OH; N-terminus and C-terminus assumed): the 50% inhibitory concentration (IC50) in experiment [2] (setting [5]) was 26.6 µM.

Consider “GSHMKETWWETWWTEWSQPKKKRKVLEEPGQPLDLSCQRPRDYKDDDDK [Pep1-E1A-Flag (K239Q) GSHM v.1]”, for which the “resistance to IMQ-induction of psoriasis” value in experiment [4] is recorded as “showed resistance”.

Compound `CC(C)C[C@H](NC(=O)[C@H](CC(=O)O)NC(=O)[C@H](CC(C)C)NC(=O)[C@@H]1CCCN1C(=O)CNC(=O)[C@H](CC(=O)O)NC(=O)CNC(=O)CN)C(=O)N[C@@H](CS)C(=O)N[C@@H](CS)C(=O)N[C@@H](CCCNC(=N)N)C(=O)N[C@@H](CCCCN)C(=O)N[C@@H](CCCNC(=N)N)C(=O)N1CCC[C@H]1C(=O)O` [SEQ ID NO:133] (H-GGDGPLDLCCRKRP-OH; N-terminus and C-terminus assumed) yielded an IC50 in experiment [1] of 18.8 µM.

Turning to `CC(C)C[C@H](NC(=O)[C@H](CCC(=O)O)NC(=O)[C@H](CC(=O)O)NC(=O)[C@H](CC(C)C)NC(=O)[C@@H]1CCCN1C(=O)[C@H](CCC(N)=O)NC(=O)CNC(=O)[C@@H]1CCCN1C(=O)[C@H](CCC(=O)O)NC(=O)[C@H](CCC(=O)O)NC(=O)[C@H](CC(C)C)NC(=O)[C@H](CCC(N)=O)NC(=O)[C@@H]1CCCN1C(=O)[C@@H]1CCCN1C(=O)[C@H](CCCNC(=N)N)NC(=O)[C@H](CCCNC(=N)N)NC(=O)[C@H](CCCNC(=N)N)NC(=O)[C@H](CCC(N)=O)NC(=O)[C@H](CCCNC(=N)N)NC(=O)[C@H](CCCNC(=N)N)NC(=O)[C@H](CCCCN)NC(=O)[C@H](CCCCN)NC(=O)[C@H](CCCNC(=N)N)NC(=O)CN)C(=O)N[C@@H](CS)C(=O)N[C@@H](CCCCN)C(=O)N[C@@H](CCCNC(=N)N)C(=O)N1CCC[C@H]1C(=O)N[C@@H](CCCNC(=N)N)C(=O)N[C@@H](CC(=O)O)C(=O)N[C@@H](Cc1ccc(O)cc1)C(=O)N[C@@H](CCCCN)C(=O)N[C@@H](CC(=O)O)C(=O)N[C@@H](CC(=O)O)C(=O)N[C@@H](CC(=O)O)C(=O)N[C@@H](CC(=O)O)C(=O)N[C@@H](CCCCN)C(=O)O` [Tat-E1A-Flag (LS-EL)] (H-GRKKRRQRRRPPQLEEPGQPLDELCKRPRDYKDDDDK-OH), the concentration for half-maximal inhibition (IC50) was above 200 µM in experiment [2] (setting [5]) and above 200 µM in experiment [2] (IC50 value, Table 4, inhibition of CtBP-E1A interaction).

For the compound `CC(C)C[C@H](NC(=O)[C@H](CC(=O)O)NC(=O)[C@H](CC(C)C)NC(=O)[C@@H]1CCCN1C(=O)[C@H](CCC(N)=O)NC(=O)CNC(=O)[C@@H]1CCCN1C(=O)[C@H](CCC(=O)O)NC(=O)[C@H](CCC(=O)O)NC(=O)[C@H](CC(C)C)NC(=O)[C@H](CCC(N)=O)NC(=O)[C@@H]1CCCN1C(=O)[C@@H]1CCCN1C(=O)[C@H](CCCNC(=N)N)NC(=O)[C@H](CCCNC(=N)N)NC(=O)[C@H](CCCNC(=N)N)NC(=O)[C@H](CCC(N)=O)NC(=O)[C@H](CCCNC(=N)N)NC(=O)[C@H](CCCNC(=N)N)NC(=O)[C@H](CCCCN)NC(=O)[C@H](CCCCN)NC(=O)[C@H](CCCNC(=N)N)NC(=O)CN)C(=O)N[C@@H](CO)C(=O)N[C@@H](CS)C(=O)N[C@@H](CCCCN)C(=O)N[C@@H](CCCNC(=N)N)C(=O)N1CCC[C@H]1C(=O)N[C@@H](CCCNC(=N)N)C(=O)N[C@@H](CC(=O)O)C(=O)N[C@@H](Cc1ccc(O)cc1)C(=O)N[C@@H](CCCCN)C(=O)N[C@@H](CC(=O)O)C(=O)N[C@@H](CC(=O)O)C(=O)N[C@@H](CC(=O)O)C(=O)N[C@@H](CC(=O)O)C(=O)N[C@@H](CCCCN)C(=O)O` [Tat-E1A fusion] (H-GRKKRRQRRRPPQLEEPGQPLDLSCKRPRDYKDDDDK-OH; N-terminus and C-terminus assumed), the IC50 in experiment [2] (IC50 of inhibition of the CtBP/E1A interaction, FIG. 3, peptide purified from E. coli) was around 7.7 µM; in experiment [2] (setting [5]) it was 1.7 µM.

EPGQPLSLSCKRPR [SEQ ID NO:135]: in experiment [1] (Table 5, 50% reduction of fluorescence polarization value), the concentration for half-maximal inhibition (IC50) result is on record as “did not inhibit CtBP”.

In the case of `CC(C)C[C@H](NC(=O)[C@H](CC(=O)O)NC(=O)[C@H](CC(C)C)NC(=O)[C@@H]1CCCN1C(=O)[C@H](CCC(N)=O)NC(=O)CNC(=O)[C@@H]1CCCN1C(=O)[C@@H](N)CCC(=O)O)C(=O)N[C@@H](CO)C(=O)N[C@@H](CS)C(=O)N[C@@H](CCC(N)=O)C(=O)N[C@@H](CCCNC(=N)N)C(=O)N1CCC[C@H]1C(=O)N[C@@H](CCCNC(=N)N)C(=O)O` [Peptide K239Q] (H-EPGQPLDLSCQRPR-OH; N-terminus and C-terminus assumed), in experiment [2] (setting [5]), the IC50 is 12 µM.
